Patent US20230027066A1 (Urovant Sciences GmbH, priority 2019, published 2023)
Like-named read-outs stand apart in the source and are kept apart here.

Columns and labels:
[1] = QT Study/Label April 2018, cited from earlier work
CYP2D6 = CYP2D6 (Homo sapiens, UniProt P10635); experiment: drug interaction study of vibegron and metoprolol succinate (moderately sensitive CYP2D6 substrate); format: in vivo; design: from tissue; host or cells: in vivo, healthy adult human subjects (endogenous enzyme)
[2] = 50 mg repeat-dose, healthy subjects
[3] = human, plasma, metoprolol 100 mg alone
[4] = metoprolol 100 mg, vibegron 75 mg

Sequence of CYP2D6 (P10635 whole entry): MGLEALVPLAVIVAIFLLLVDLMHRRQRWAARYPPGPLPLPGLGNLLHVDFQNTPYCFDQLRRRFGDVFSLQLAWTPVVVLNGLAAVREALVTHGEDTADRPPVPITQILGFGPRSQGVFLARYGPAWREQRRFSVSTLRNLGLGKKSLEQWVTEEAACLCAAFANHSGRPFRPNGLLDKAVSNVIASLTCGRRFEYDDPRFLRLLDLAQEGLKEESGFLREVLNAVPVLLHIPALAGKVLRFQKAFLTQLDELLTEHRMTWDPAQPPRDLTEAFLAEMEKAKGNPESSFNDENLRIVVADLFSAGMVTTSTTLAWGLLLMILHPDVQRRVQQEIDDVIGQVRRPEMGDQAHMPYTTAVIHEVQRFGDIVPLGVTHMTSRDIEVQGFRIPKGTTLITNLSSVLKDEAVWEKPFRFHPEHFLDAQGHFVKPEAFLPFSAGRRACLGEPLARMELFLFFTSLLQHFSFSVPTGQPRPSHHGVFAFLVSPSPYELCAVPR

| Structure (SMILES) | SBP change 24-hour average, placebo adjusted [1, 2] | SBP change Maximum mean, placebo adjusted [1, 2] | SBP change 24-hour average, placebo adjusted ([1]; 100 mg repeat-dose, healthy subjects) | SBP change 24-hour average, placebo adjusted ([1]; 200 mg repeat-dose, healthy subjects) | HR change Maximum mean, placebo adjusted ([1]; first of doses 50, 100, 200 mg repeat-dose (doses from the Doses line)) [bpm] | HR change Maximum mean, placebo adjusted ([1]; second of doses 50, 100, 200 mg repeat-dose (doses from the Doses line)) [bpm] | HR change Maximum mean, placebo adjusted ([1]; third of doses 50, 100, 200 mg repeat-dose (doses from the Doses line)) [bpm] | AUC(0-inf) (CYP2D6; [3]) [ng·h/mL] | Cmax (CYP2D6; [3]) [ng/mL] | half-life (CYP2D6; human, plasma, metoprolol 100 mg alone, read-out: t1/2, GM (% CV) (converted)) [h] | AUC0-∞, ratio of GLS mean metoprolol + vibegron/metoprolol alone (CYP2D6; [4]) | Cmax, ratio of GLS mean metoprolol + vibegron/metoprolol alone (CYP2D6; [4]) |
| --- | --- | --- | --- | --- | --- | --- | --- | --- | --- | --- | --- | --- |
| Nc1nc(CC(=O)Nc2ccc(CCNC[C@H](O)c3ccccc3)cc2)cs1 [Mirabegron, mirabegron] | +3.0 mmHg | Maximum mean +4.0 mmHg | +5.5 mmHg | +9.7 mmHg | 6.7 | 11 | 17 | – | – | – | – | – |
| COCCc1ccc(OCC(O)CNC(C)C)cc1 (stereo not drawn) [Metoprolol, metoprolol succinate] | – | – | – | – | – | – | – | 384 | 21.9 | 9.5 | 1.40 | 1.49 |
